Results reported in patent US12715851B2, “4′-substituted analogues of fisetin and their use in the treatment of cancer” (Stellenbosch University, priority 2020, dated 2026).
Entries after “also recorded” stand apart in the source; their conditions may differ.

How the values were obtained:
[1] = tested on: A549 lung cancer cell line; test: MTT cell proliferation assay, cytotoxicity after 48 h treatment; type: cell-based, human
Experimental: These 4′-substituted Fisetin analogues were initially screened for cytotoxicity against the A549 lung cancer cell line following a 48 h treatment period. Cytotoxicity IC50's were quantified using the MTT cell proliferation assay. The compounds were not found to interfere with the assay by causing an increase in background absorbance, no correlation was found between the lipophilicity and cytotoxicity at this position, and the substituent size was also not found to be important.

A549 cells [2] = test: Trypan blue cell exclusion assay, cell proliferation and death; type: cell-based; conditions: Homo sapiens, A549, 48 h, read-out: IC50 concentration
Experimental: (§1) To evaluate the effect of Fisetin analogues 3a, 3c and 3e on cell proliferation and death of human lung cancer cells, trypan blue cell exclusion assays were performed. A549 and H1299 cancer cells were treated with different concentrations of three selected Fisetin analogues for 48 h. The Fisetin analogues decreased the viability of cells and caused cell death in both the cell lines in a concentration dependent fashion. A549 and H1299 cells were treated with 5, 10 and 20 μM of Fisetin analogues for 48 h. All three analogues decreased cell proliferation and induced cell death.

H1299 lung cancer cells = test: as above; type: cell-based; conditions: Homo sapiens, NCI-H1299, H1299, 48 h, read-out: IC50 concentration
Experimental: as §1

A549 cells [3] = test: Western blot of signalling, cell cycle and apoptosis markers; type: cell-based, human; conditions: IC50 concentration and 20 μM
Description: Similarly, in H1299 cells analogue 3a induced a 11.7 to 14.9% cell death (FIG. 4D right) compared to 3.8% in control cells. Analogue 3c (FIG. 4E right) and analogue 3e (FIG. 4F right) induced cell death of 8.2 to 15.1% and 8.8 to 16.6% respectively. For western blot experiments, two concentrations were used, i.e. the IC50 concentration and the next higher concentration utilized for cell proliferation for each cell line.
The expression of pro-oncogenic signalling molecules, which are involved in proliferation and survival of cancer cells, were evaluated.
The effect of the Fisetin analogues on molecular markers of apoptosis was assessed.

A549 = test: Apoptosis assay; type: cell-based, human; conditions: 48 h, control cells 4.7%
Description: (§2) In A549, analogue 3a induced 8.2 and 11.2% apoptosis, analogue 3c induced 13.4 and 17.2% apoptosis, and analogue 3e induced 10.6 to 19.5% apoptosis compared to 4.7% in control cells (FIG. 6A).

H1299 cancer cells = test: Apoptosis assay; type: cell-based, human; conditions: 48 h
Description: [Worded in the source for another cell line; used here, by the source, with some conditions changed.] as §2

[4] = tested on: lipid peroxidation (MDA formation); test: Hepatotoxicity: lipid peroxidation assay on microsomal liver fraction (TBARS); type: in vivo, swiss albino mice; conditions: microsomal liver fraction of treated mice
Experimental: (§3) Hepatotoxicity is considered to be one of the major challenges for drug development schemes. The liver is the primary organ for the metabolism or biotransformation of a given drug. To assess the hepatotoxicity of these compounds, the effects of Fisetin and analogue 3c on various hepatic enzymes was assessed.
(§4) A lipid peroxidation assay was performed on microsomal liver fraction and determined in terms of TBARS formation. […] The modulatory effects of Fisetin and analogue 3c were determined on the specific activities of cytochrome b5 reductase (Cytb5R) and cytochrome P450 reductase (CytP450R), phase I enzyme of xenobiotic metabolism. Fisetin and analogue 3c caused reduction in the specific activity of cytochrome b5 reductase. Fisetin decreased Cytb5R specific activity by 66% whereas analogue 3c (50 mg/kg) caused a 36% reduction in specific activity (FIG. 7F). An increase in specific activity of CytP450R by Fisetin and analogue 3c was observed. Fisetin and analogue 3c (50 mg/kg) increased the specific activity by 15% and 13%, respectively (FIG. 7G). Next, the specific activities of phase II enzymes, glutathione S-transferase (GST) and reduced glutathione (GSH) were measured. […] Fisetin and analogue 3c (50 mg/kg) caused a decrease in specific activity of GSH by 34% and 7%, respectively (FIG. 7I). […] These analogues are therefore likely to be effective and safe phytochemicals.

SOD = test: Hepatotoxicity: specific activity of SOD; type: in vivo, swiss albino mice; conditions: liver of treated mice
Experimental: as §3, §4

[5] = tested on: cytochrome b5 reductase (Cytb5R); test: Hepatotoxicity: specific activity of cytochrome b5 reductase; type: in vivo, swiss albino mice; conditions: 50 mg/kg orally, two weeks
Experimental: as §3, §4

[6] = tested on: cytochrome P450 reductase (CytP450R); test: Hepatotoxicity: specific activity of cytochrome P450 reductase; type: in vivo, swiss albino mice; conditions: 50 mg/kg orally, two weeks
Experimental: as §3, §4

[7] = tested on: glutathione S-transferase (GST); test: Hepatotoxicity: specific activity of glutathione S-transferase; type: in vivo, swiss albino mice; conditions: liver of treated mice
Experimental: as §3, §4

[8] = tested on: reduced glutathione (GSH); test: Hepatotoxicity: reduced glutathione; type: in vivo, swiss albino mice; conditions: 50 mg/kg orally, two weeks
Experimental: as §3, §4

[9] = tested on: B(a)P-induced lung carcinogenesis; test: B(a)P-induced lung carcinogenesis, Initiation and Promotion Protocols; type: in vivo, Swiss albino mice
Description: To assess whether Fisetin and its 4-bromo-Fisetin analogue (Fisetin analogue 3c) have anticarcinogenesis activity and if any toxicity in terms of water and food consumption, and body weight, Benzo[a]pyrene [B(a)P] induced lung carcinogenesis in Swiss albino mice were employed in the study. Along with the antitumor activity of the agents, the body weight, food and water intake in different treatment groups were monitored on regular intervals and analysed.
There were six different treatment groups in the study including, (1) control, (2) B(a)P, (3) Fisetin+B(a)P, (4) Fisetin analogue 3c+B(a)P, (5) B(a)P+Fisetin and (6) B(a)P+Fisetin analogue 3c.
Groups 3 and 4 represent the Initiation Protocol (agents treatment started 1 week before carcinogen treatment and continued 1 week after the last dose of the carcinogen). Groups 5 and 6 represent the Promotion Protocol (agents treatment started after 3 weeks of the carcinogen treatment). The B(a)P was given orally twice a week for 4 weeks at 50 mg/kg body weight dose, whereas Fisetin and Fisetin analogue (3c) were administered orally at 25 mg/kg body weight thrice weekly (see FIG. 9).

## O=c1c(O)c(-c2ccc(Br)cc2)oc2cc(O)ccc12 [analogue 3c, 4′-Bromo-3,7-dihydroxyflavone]
[1]; A549, MTT, 48 h
  cytotoxicity, in words: particularly active
[1]; A549 and/or H1299
  activity against lung cancer cell lines compared with the parent Fisetin: substantially more active
A549 cells [2]
  IC50: 12.1 µM
H1299 lung cancer cells
  IC50: 5.4 µM
A549 cells [3]
  cleaved caspase-3: IC50 concentration of analogue 3c also increased cleaved caspase-3 to a significant amount; also recorded: higher concentration of analogue 3c and both the concentrations of analogue 3e increased the cleaved caspase-3 marginally
  expression of p21: increased the p21 expression significantly at higher concentration
  expression of phospho Cdc-2: IC50 concentration decreased the expression to some extent; also recorded: the higher concentrations decreased the phospho-Cdc-2 expression significantly
  expression of phospho-EGFR: minimally affected except for higher concentration of analogue 3c
  expression of phospho-Erk1/2: decreased the expression of phospho-Erk1/2 significantly at both the concentrations
  expression of pro-apoptotic protein Bax: increased the expression of Bax with much higher potential
  total Stat-3 expression: not affected
  total form of Akt: slightly downregulated
  total form of Erk1/2: not affected except for 3c in the higher concentration
A549; IC50 concentration
  apoptosis: 13.4%
A549; higher concentration 20 μM
  apoptosis: 17.2%
H1299 cancer cells; IC50 concentration
  apoptosis: 13.4%
H1299 cancer cells; higher concentration 10 μM
  apoptosis: 17.2%
[4]
  MDA formation (TBARS): No significant change
SOD
  specific activity of SOD: moderately induced
[5]
  reduction in specific activity of cytochrome b5 reductase: 36%
[6]
  increase in specific activity of CytP450R: 13%
[7]
  specific activities of GST compared to the control group: did not cause significant change
[8]
  decrease in specific activity of GSH: 7%
[9]; 25 mg/kg orally thrice weekly
  systemic toxicity during long-term application: did not show any systemic toxicity
  tumorigenic features in lung histology (nucleus size, cytoplasmic content, alveoli): reversal of the tumorigenic features
[9]; compared to the carcinogen treated group
  tumor incidence, histopathology of H&E stained serial sections: less
[9]; initiation group
  decrease of area or size of lesions: approximately 50%
[9]; mouse model
  efficacy in inhibiting B(a)P induced lung carcinogenesis, in words: efficacious; also recorded: more effective in reducing the number as well as the size of the lung tumor lesions as compared to the parent compound Fisetin
[9]; promotion group
  decrease of area or size of lesions: more than 50%
[9]; tumor initiation group
  reduction of total number of lesions: approximately 50%
[9]; tumor initiation phase, B(a)P-only group 100% incidence
  surface tumor lesion incidence, gross observation of lung: only one mouse showed surface tumor lesion out of five
[9]; versus B(a)P group
  tumor lesions per mouse and total number of lesions per group, in words: strongly reduced
